Paper PMC10542788, “Discovery of a cystathionine γ-lyase (CSE) selective inhibitor targeting active-site pyridoxal 5′-phosphate (PLP) via Schiff base formation” (Scientific Reports, 2023)

Columns and labels:
ALT = ALT inhibition, coupled absorbance assay (NADH, 340 nm); format: biochemical; conditions: 30 µM
Method: (§1) The selectivity of 1, 2 and PAG for rCSE over other RSS-producing enzymes, CBS and 3MST, was examined (Fig. 4a). CBS is a PLP-dependent enzyme, like CSE, and produces H2S from cysteine and homocysteine as substrates. 3MST is also an H2S-producing enzyme, but is not PLP-dependent and uses 3-mercaptopyruvate as a substrate. The amount of H2S produced by CBS or 3MST was evaluated in the presence or absence of the inhibitor by measuring the fluorescence intensity of HSip-1. […] We also examined the inhibitory activity towards two other PLP-dependent enzymes, MGL and ALT. MGL metabolizes L-methionine to α-ketobutyric acid, methanethiol and ammonia, and is inhibited by PAG[14]. MGL also produces H2S from homocysteine as a substrate, and this activity of MGL can be measured by fluorescence detection with HSip-1. […] The enzymatic activity of ALT can be assessed by means of a coupled assay using the reduction of pyruvate to L-lactate with lactate dehydrogenase and NADH and measuring the change in absorption of NADH.
An alanine aminotransferase activity assay kit (BioVision, Inc.) was used to measure the activity of ALT. A mixture of L-alanine, NADH, LDH (lactate dehydrogenase) and ALT was incubated at 37 °C for 15 min, then α-ketoglutarate was added to the mixture and the absorbance at 340 nm was measured with a microplate reader.

MGL = MGL inhibition, HSip-1 fluorescence; format: biochemical; conditions: 30 µM
Method: as §1
10 µL of 200 µM homocysteine in 30 mM HEPES (pH 7.4) was added to 10 µL of a solution containing 20 µg/mL MGL (Sigma-Aldrich), 100 µM PLP, 1 µM HSip-1, 0.005% tween 20 and various concentrations of the inhibitor (0.5% DMSO as a cosolvent). The mixture was incubated at 25 °C for 100 min and the fluorescence intensity of HSip-1 was measured with a microplate reader.

rCSE = rCSE (Rattus norvegicus, UniProt P18757); assay: rCSE inhibition, H2S detection by gas chromatography; format: biochemical; design: His-tag (C); made in house; host or cells: E. coli BL21; conditions: 1.5 mM cysteine, 100 μM PLP, mean ± S.E., read-out: IC50, inhibition of H2S production by rCSE
Sequence of rCSE (P18757 whole entry): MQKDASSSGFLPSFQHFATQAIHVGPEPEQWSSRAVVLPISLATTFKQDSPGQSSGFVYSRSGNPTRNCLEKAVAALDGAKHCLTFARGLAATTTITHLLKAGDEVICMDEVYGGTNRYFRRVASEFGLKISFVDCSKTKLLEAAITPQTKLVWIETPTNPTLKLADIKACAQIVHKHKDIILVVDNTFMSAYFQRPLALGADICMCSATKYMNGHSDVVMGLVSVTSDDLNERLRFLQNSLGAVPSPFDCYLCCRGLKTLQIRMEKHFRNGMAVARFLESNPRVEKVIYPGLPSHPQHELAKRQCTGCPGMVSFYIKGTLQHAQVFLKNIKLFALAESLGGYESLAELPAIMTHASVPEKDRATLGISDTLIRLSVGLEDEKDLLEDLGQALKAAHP
Method: Next, in order to further confirm the CSE-inhibitory ability of 1, we employed a gas chromatographic method. A mixture of 30 μg/mL rCSE, 100 μM PLP and 1.5 mM cysteine in 30 mM HEPES buffer (pH 7.4) with or without 1 or PAG was incubated in a sealed glass vial, and the air containing enzymatically produced H2S in the glass vial was analyzed by gas chromatography.
Supplementary Figure S4. (a) H2S production by rCSE in the presence of various concentrations of 1 was measured by gas chromatography. A solution of 30 μg/mL rCSE, 100 μM PLP and 1.5 mM cysteine in 30 mM HEPES buffer (pH 7.4) was incubated at r.t. for 60 min. Error bars represent ±S.D. (n = 4). (b) Inhibitory activity of 1 (mean ± S.E.). H2S was detected by gas chromatography. Error bars represent ± S.D. (n = 4).

hCSE = target: T1, hCSE (Homo sapiens, UniProt P32929); assay: hCSE inhibition in living HEK293T cells expressing hCSE (pretreatment, wash, lysis, HSip-1); format: cell-based
T1 construct: expressed in transfected cells; host or cells: HEK293T
T1 sequence (P32929 whole entry): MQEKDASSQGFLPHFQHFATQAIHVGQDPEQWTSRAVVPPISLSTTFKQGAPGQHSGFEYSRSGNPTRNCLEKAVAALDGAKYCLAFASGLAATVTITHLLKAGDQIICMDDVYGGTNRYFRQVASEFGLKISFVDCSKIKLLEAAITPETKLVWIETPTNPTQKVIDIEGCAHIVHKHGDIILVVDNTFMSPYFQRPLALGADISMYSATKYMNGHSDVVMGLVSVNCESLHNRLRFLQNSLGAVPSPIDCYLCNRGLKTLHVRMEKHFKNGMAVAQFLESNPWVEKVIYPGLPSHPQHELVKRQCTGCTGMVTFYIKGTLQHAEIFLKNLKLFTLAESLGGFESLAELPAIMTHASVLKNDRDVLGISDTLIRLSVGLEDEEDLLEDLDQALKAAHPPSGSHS
Method: We next examined the suitability of 1 for live-cell experiments. First, we performed CCK-8 assay (Dojindo) to examine its cytotoxicity. COS7 cells were incubated with various concentrations of 1 for 27 h at 37 °C under 5% CO2 and the cell viability was assessed. […] We then examined whether 1 can inhibit the enzymatic activity of hCSE in living cells by employing an indirect approach (Supplementary Fig. S12). HEK293T cells expressing hCSE were incubated with 0–1 mM 1 for 30 min, then washed twice with phosphate-buffered saline (PBS), and lysed in RIPA buffer (50 mM Tris–HCl buffer (pH 7.6), 150 mM NaCl, 1% Nonidet P40 Substitute, 0.5% sodium deoxycholate, protease inhibitor cocktail, 0.1% SDS). The inhibitory activity of 1 was evaluated by fluorescence detection after adding 1.5 mM cysteine, 100 μM PLP and 1 μM HSip-1 to these cell lysates.
Supplementary Figure S12. Experimental protocol for the indirect assessment of the hCSE-inhibitory activity of 1 in living cells. […] L-Cysteine (substrate), PLP and HSip-1 were added to the cell lysate (450 μg/mL cell lysate, 1.5 mM L-cysteine, 100 μM PLP, 1 μM HSip-1 in 30 mM HEPES buffer (pH 7.4) containing 0.005% Tween 20), and the fluorescence was measured with a plate reader (Ex. = 490 nm, Em. = 510 nm).

IC50 (rCSE): 23 ± 6 µM
IC50 (hCSE; HEK293T cells expressing hCSE incubated 30 min with 1, washed, lysed, mean ± S.E., read-out: IC50, inhibitory activity towards hCSE in living cells): 170 ± 33 µM
cell-membrane permeability (hCSE; concluded from inhibition of hCSE in living cells): sufficiently cell-membrane permeable
Compound: NNC(=O)C(N)=O [Compound 1, oxamic hydrazide]
inhibitory activity towards ALT / selectivity for CSE over ALT (ALT): high selectivity for CSE over MGL and ALT
inhibitory activity towards MGL / selectivity for CSE over MGL (MGL): high selectivity for CSE over MGL and ALT
